Results on ten compounds are retold here after US8686147B2, “Compound with serotoninergic activity, process for preparing it and pharmaceutical composition comprising it” (Aziende Chimiche Riunite Angelini Francesco A.C.R.A.F. …, priority 2009, dated 2014).

The target of data set [1] is T1, human 5-HT2A serotonin receptor (Homo sapiens, UniProt P28223).
T1 construct: expressed in transfected cells
Nature of the data set: Binding to the human 5-HT2A serotonin receptor. The following applies: human 5-HT2A receptor, six concentrations; for Ki: read-out: 5-HT2 (pKi) (converted). As to the method: Confirmation of the binding to the serotoninergic receptors was performed by means of a biochemical test on purified membranes from recombinant human cells that stably express the specific receptors or from selected animal tissues as described in particular in Grossman C. J. et al. (1993), Br. J. Pharmacol. 109: 618-624, Bonhaus D. W. et al. (1995), Br. J. Pharmacol. 115(4): 622-628; and Saucier C. et al. (1997), J. Neurochem. 68(5): 1998-2011.
(§1) Confirmation of the binding to the serotoninergic receptors was made using purified membranes from selected animal tissues or from recombinant human cells that stably express the specific receptors.
Binding to the human 5-HT2A serotonin receptor was performed via the standard method described in Bonhaus, D. W., Bach C., De Souza A., Salazar F. H., Matsuoka B. D., Zuppan P., Chan H. W., Eglen R. M. (1995): “The pharmacology and distribution of human 5-hydroxytryptamine 2B (5-HT2B) receptor gene products: comparison with 5-HT2A and 5-HT2C receptors.” Br. J. Pharmacol. 115(4): 622-628; and Saucier C., Albert P. R. (1997): “Identification of an endogenous 5-hydroxytryptamine 2A receptor in NIH-3T3 cells: agonist-induced down-regulation involves decreases in receptor RNA and number.” J. Neurochem. 68(5): 1998-2011. The test compounds were tested at six concentrations to obtain the pKi values of the individual compounds.
The values of affinity for the 5-HT4 and 5-HT2A receptor of a number of compounds of formula (I) according to the present invention are given, respectively, in Tables 2 and 3, and expressed as pKi, the value of which is proportionately greater the greater the affinity of the compound for the receptor.

The target in the next data set is T2, 5-HT4 serotonin receptor (Cavia porcellus, UniProt O70528).
T2 construct: The starting materials used were an homogenate of guinea pig striatum; from tissue; host or cells: guinea pig striatum homogenate
Nature of the data set: Binding to the 5-HT4 serotonin receptor (radioligand binding, homogenate of guinea pig striatum). Particulars: six concentrations, read-out: 5-HT4 (pKi) (converted). As to the method: Confirmation of the binding to the serotoninergic receptors was performed by means of a biochemical test on purified membranes from recombinant human cells that stably express the specific receptors or from selected animal tissues as described in particular in Grossman C.
as §1
Binding to the 5-HT4 serotonin receptor was performed using standard methods described in: Grossman C. […] The test compounds were tested at six concentrations to obtain the pKi values of the individual compounds.

T1 sequence (P28223 whole entry): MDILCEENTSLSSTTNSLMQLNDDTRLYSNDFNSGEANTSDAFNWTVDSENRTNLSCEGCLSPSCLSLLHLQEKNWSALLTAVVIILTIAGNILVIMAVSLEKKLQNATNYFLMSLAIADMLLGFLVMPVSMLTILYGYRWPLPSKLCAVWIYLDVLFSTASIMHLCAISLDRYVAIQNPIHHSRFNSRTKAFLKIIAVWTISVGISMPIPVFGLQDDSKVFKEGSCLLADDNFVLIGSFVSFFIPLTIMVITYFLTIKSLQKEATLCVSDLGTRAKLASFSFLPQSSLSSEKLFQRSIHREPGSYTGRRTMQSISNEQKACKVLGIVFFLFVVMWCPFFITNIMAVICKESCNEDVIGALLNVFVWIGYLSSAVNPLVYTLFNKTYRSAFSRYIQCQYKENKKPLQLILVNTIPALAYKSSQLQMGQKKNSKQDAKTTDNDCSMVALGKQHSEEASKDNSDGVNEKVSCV
T2 sequence (O70528 whole entry): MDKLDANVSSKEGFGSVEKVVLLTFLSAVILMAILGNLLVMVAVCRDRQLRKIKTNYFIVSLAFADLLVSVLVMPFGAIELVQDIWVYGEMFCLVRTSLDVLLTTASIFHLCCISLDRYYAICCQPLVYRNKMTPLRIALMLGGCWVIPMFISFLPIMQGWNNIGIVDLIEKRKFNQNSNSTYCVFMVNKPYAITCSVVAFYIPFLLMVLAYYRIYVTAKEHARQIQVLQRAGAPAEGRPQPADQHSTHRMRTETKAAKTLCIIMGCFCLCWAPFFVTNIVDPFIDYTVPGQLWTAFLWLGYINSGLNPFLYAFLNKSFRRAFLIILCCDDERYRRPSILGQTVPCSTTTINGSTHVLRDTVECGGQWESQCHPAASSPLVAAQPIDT

Take `Cl.Cn1cc2c(OCC3CCN(CC(=O)Nc4ccccc4)CC3)nc3ccccc3c2c1`: the melting point was 163 to 165 °C.
In turn, `Cl.Cn1cc2c(OCC3CCN(CCN4CCOCC4)CC3)nc3ccccc3c2c1` [Compound 9a, 4-{[1-(2-(4-Morpholinyl)ethyl)piperid-4-yl]methyloxy}-2-methyl-2H-pyrrolo[3,4-c]quinoline hydrochloride] gave a melting point of 190 to 192 °C. Besides, the Ki in data set [1] was > 10000 nM. The Ki at 5-HT4 serotonin receptor was 2.29 nM.
`COCc1ccc(CCN2CCC(COc3nc4ccccc4c4cn(C)cc34)CC2)cc1` [Compound 16, 4-[(1-(4-Methoxymethylphenylethyl)piperid-4-yl)methyloxy]-2-methyl-2H-pyrrolo[3,4-c]quinoline]: at 5-HT4 serotonin receptor, the Ki was 19.1 nM.
Consider `Cn1cc2c(OCC3CCN(CCc4ccc(C(=O)O)cc4)CC3)nc3ccccc3c2c1` [Compound 12a], for which the Ki in data set [1] is > 10000 nM; on 5-HT4 serotonin receptor, 2.24 nM.
For `Cn1cc2c(OCC3CCN(CCc4ccccc4)CC3)nc3ccccc3c2c1` [Compound 4, 4-{[1-(2-Phenyl)ethylpiperidine-4-yl]methoxy}-2-methyl-2H-pyrrolo[3,4-c]quinoline], the Ki at 5-HT4 serotonin receptor is 1.86 nM.
`Cl.Cn1cc2c(OCC3CCN(CCc4ccc(N)cc4)CC3)nc3ccccc3c2c1` [Compound 11a, 4-[(1-(4-Aminophenylethyl)piperid-4-yl)methyloxy]-2-methyl-2H-pyrrolo[3,4-c]quinoline hydrochloride] had a melting point of 165 to 167 °C. Besides, the “5-HT2 (pKi)” value in data set [1] is listed as 6.6. For the same compound, the Ki on 5-HT4 serotonin receptor is 4.57 nM.
For the compound `CC(C)n1cc2c(OCC3CCN(CCc4ccccc4)CC3)nc3ccccc3c2c1` [Compound 5, 4-{[1-(2-Phenyl)ethylpiperid-4-yl]methoxy}-2-isopropyl-2H-pyrrolo[3,4-c]quinoline], the Ki on 5-HT4 serotonin receptor is 138 nM.
Regarding `CC(=O)Nc1ccc(CCN2CCC(COc3nc4ccccc4c4cn(C)cc34)CC2)cc1` [Compound 13, 4-[(1-(4-Acetamidophenylethyl)piperid-4-yl)methyloxy]-2-methyl-2H-pyrrolo[3,4-c]quinoline], the values for the Ki (in data set [1]; at 5-HT4 serotonin receptor) were > 1000 nM and 1.86 nM, respectively.
Regarding `Cn1cc2c(OCC3CCN(CC(=O)Nc4ccccc4)CC3)nc3ccccc3c2c1` [Compound 6, N-Phenyl-2-{4-[2-methyl-2H-pyrrolo[3,4-c]quinolin-4-yloxy-methyl]piperid-1-yl}acetamide], the Ki on 5-HT4 serotonin receptor is 132 nM.
As for `CCCCN1CCC(COc2nc3ccccc3c3cn(C)cc23)CC1` [Compound 3, 4-[(1-Butylpiperid-4-yl)methyloxy]-2-methyl-2H-pyrrolo[3,4-c]quinoline], the Ki is > 1000 nM in data set [1] and 14.8 nM at 5-HT4 serotonin receptor.

In general, melting point refers to the temperature of the solid-liquid transition.
